Reference: US8344008B2 (Janssen Pharmaceutica NV, priority 2007, dated 2013)

molecular target: T1, recombinant human LTA4 hydrolase (rhLTA4H) (Homo sapiens, UniProt P09960); assay: Recombinant Human LTA4 Hydrolase Assay for LTA4 Hydrolase Inhibitor Activity; type: biochemical; conditions: average of results obtained; LTB4 quantified by enzyme-linked immunoassay
T1 construct: made in house; host or cells: Spodoptera frugiperda (Sf-9) cells, baculovirus (pFastBac1)
T1 sequence (P09960 1-611): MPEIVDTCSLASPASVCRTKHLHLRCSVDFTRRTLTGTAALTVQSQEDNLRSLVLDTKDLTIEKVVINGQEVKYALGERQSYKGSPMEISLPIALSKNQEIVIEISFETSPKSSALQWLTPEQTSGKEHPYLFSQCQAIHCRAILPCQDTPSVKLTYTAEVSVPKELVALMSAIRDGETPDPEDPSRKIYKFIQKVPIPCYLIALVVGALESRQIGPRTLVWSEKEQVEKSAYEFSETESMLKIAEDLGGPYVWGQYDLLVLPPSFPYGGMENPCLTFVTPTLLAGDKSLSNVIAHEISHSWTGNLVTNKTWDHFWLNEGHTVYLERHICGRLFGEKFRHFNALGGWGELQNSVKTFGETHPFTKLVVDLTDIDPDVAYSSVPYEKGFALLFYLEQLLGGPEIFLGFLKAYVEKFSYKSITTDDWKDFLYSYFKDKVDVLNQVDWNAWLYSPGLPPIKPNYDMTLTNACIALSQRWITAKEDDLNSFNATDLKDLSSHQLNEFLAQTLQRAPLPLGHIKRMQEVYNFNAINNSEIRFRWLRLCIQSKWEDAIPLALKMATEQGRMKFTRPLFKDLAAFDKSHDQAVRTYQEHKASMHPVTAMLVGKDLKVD
In short: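 Baculovirus/Sf-9-expressed human LTA4 hydrolase (36 ng) preincubated with compound 10 min at rt in 0.1 M potassium phosphate pH 7.4, 5 mg/mL fatty-acid-free BSA. Reaction started with 9 ng LTA4 free acid, run 10 min at rt; LTB4 measured by enzyme immunoassay, IC50 from 4-parameter fit.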

For CC(=O)N1[C@@H]2CC[C@H]1C[C@H](NCc1ccc(Oc3nc4cccc(Cl)c4s3)cc1)C2 [Example 166, meso-exo-1-{3-[4-(7-Chloro-benzothiazol-2-yloxy)-benzylamino]-8-aza-bicyclo[3.2.1]oct-8-yl}-ethanone], which Ki is on record?
The Ki was 1.9 µM.

CS(=O)(=O)N[C@H]1C[C@H]2CC[C@@H](C1)N2Cc1ccc(Oc2nc3c(Cl)cccc3s2)cc1 [Example 167, meso-endo-N-{8-[4-(4-Chloro-benzothiazol-2-yloxy)-benzyl]-8-aza-bicyclo[3.2.1]oct-3-yl}-methanesulfonamide] was tested. Which Ki did it give?
Its Ki is 0.033 µM.

CS(=O)(=O)N1C[C@H]2C[C@@H]1CN2CCOc1ccc(Oc2nc3cc(F)ccc3s2)cc1 [Example 168, (R,R)-5-Fluoro-2-{4-[2-(5-methanesulfonyl-2,5-diaza-bicyclo[2.2.1]hept-2-yl)-ethoxy]-phenoxy}-benzothiazole] was tested. Which Ki did it give?
The Ki was 0.128 µM.

For CS(=O)(=O)N1CC2CCC(C1)N2CCOc1ccc(Oc2nc3ccc(Cl)cc3s2)cc1 [Example 169, meso-6-Chloro-2-{4-[2-(3-methanesulfonyl-3,8-diaza-bicyclo[3.2.1]oct-8-yl)-ethoxy]-phenoxy}-benzothiazole], which Ki is on record?
The Ki was 0.693 µM.

Which Ki does the source give for CC(=O)N1C[C@@H]2C[C@H]1CN2Cc1ccc(Oc2nc3cc(F)ccc3s2)cc1 [Example 170, (S,S)-1-{5-[4-(5-Fluoro-benzothiazol-2-yloxy)-benzyl]-2,5-diaza-bicyclo[2.2.1]hept-2-yl}-ethanone] here?
Its Ki is 0.09 µM.

With NC(=O)N1[C@@H]2CC[C@H]1C[C@H](NCc1ccc(Oc3nc4cccc(F)c4s3)cc1)C2 [Example 171, meso-endo-3-[4-(7-Fluoro-benzothiazol-2-yloxy)-benzylamino]-8-aza-bicyclo[3.2.1]octane-8-carboxylic acid amide] as the molecule, how does the Ki read?
The Ki was 0.224 µM.

How did the Ki turn out when CC(=O)N1[C@@H]2CC[C@H]1C[C@@H](NCCOc1ccc(Oc3nc4ccc(C)cc4s3)cc1)C2 [Example 172, meso-exo-1-(3-{2-[4-(6-Methyl-benzothiazol-2-yloxy)-phenoxy]-ethylamino}-8-aza-bicyclo[3.2.1]oct-8-yl)-ethanone] was run?
Its Ki is 1.05 µM.

Cc1ccc2nc(Oc3ccc(CCN[C@@H]4C[C@H]5CC[C@@H](C4)N5C(N)=O)cc3)sc2c1 [Example 173, meso-exo-3-{2-[4-(6-Methyl-benzothiazol-2-yloxy)-phenyl]-ethylamino}-8-aza-bicyclo[3.2.1]octane-8-carboxylic acid amide] was tested. Which Ki did it give?
The Ki was 0.973 µM.

With CS(=O)(=O)N1CC2CCC(C1)N2Cc1ccc(Oc2nc3cccc(Cl)c3s2)cc1 [Example 174, meso-7-Chloro-2-[4-(3-methanesulfonyl-3,8-diaza-bicyclo[3.2.1]oct-8-ylmethyl)-phenoxy]-benzothiazole] as the molecule, how does the Ki read?
The Ki was 0.196 µM.

CC(=O)N1[C@@H]2CC[C@H]1C[C@@H](NCc1ccc(Oc3nc4ccc(F)cc4s3)cc1)C2 [Example 175, meso-endo-1-{3-[4-(6-Fluoro-benzothiazol-2-yloxy)-benzylamino]-8-aza-bicyclo[3.2.1]oct-8-yl}-ethanone] was tested. Which Ki did it give?
Its Ki is 0.053 µM.

Which Ki does the source give for NC(=O)N1C[C@H]2C[C@@H]1CN2CCOc1ccc(Oc2nc3cc(Cl)ccc3s2)cc1 [Example 176, (R,R)-5-{2-[4-(5-Chloro-benzothiazol-2-yloxy)-phenoxy]-ethyl}-2,5-diaza-bicyclo[2.2.1]heptane-2-carboxylic acid amide] here?
Its Ki is 0.431 µM.

For CC(=O)N1C[C@H]2C[C@@H]1CN2CCOc1ccc(Oc2nc3ccc(Cl)cc3s2)cc1 [Example 177, (R,R)-1-(5-{2-[4-(6-Chloro-benzothiazol-2-yloxy)-phenoxy]-ethyl}-2,5-diaza-bicyclo[2.2.1]hept-2-yl)-ethanone], which Ki is on record?
The Ki was 0.094 µM.

Which Ki does the source give for CC(=O)N1[C@@H]2CC[C@H]1C[C@H](NCCOc1ccc(Oc3nc4ccc(Cl)cc4s3)cc1)C2 [Example 178, meso-exo-1-(3-{2-[4-(6-Chloro-benzothiazol-2-yloxy)-phenoxy]-ethylamino}-8-aza-bicyclo[3.2.1]oct-8-yl)-ethanone] here?
The Ki was 0.9 µM.

NC(=O)N[C@@H]1C[C@H]2CC[C@@H](C1)N2CCc1ccc(Oc2nc3ccc(F)cc3s2)cc1 [Example 179, meso-exo-(8-{2-[4-(6-Fluoro-benzothiazol-2-yloxy)-phenyl]-ethyl}-8-aza-bicyclo[3.2.1]oct-3-yl)-urea] was tested. Which Ki did it give?
Its Ki is 0.047 µM.

How did the Ki turn out when CC(=O)N1C[C@H]2C[C@@H]1CN2CCOc1ccc(Oc2nc3ccc(C)cc3s2)cc1 [Example 180, (R,R)-1-(5-{2-[4-(6-Methyl-benzothiazol-2-yloxy)-phenoxy]-ethyl}-2,5-diaza-bicyclo[2.2.1]hept-2-yl)-ethanone] was run?
The Ki was 0.124 µM.

For CS(=O)(=O)N1C[C@H]2C[C@@H]1CN2Cc1ccc(Oc2nc3cc(Cl)ccc3s2)cc1 [Example 181, (R,R)-5-Chloro-2-[4-(5-methanesulfonyl-2,5-diaza-bicyclo[2.2.1]hept-2-ylmethyl)-phenoxy]-benzothiazole], which Ki is on record?
Its Ki is 1.47 µM.

Which Ki does the source give for CS(=O)(=O)N1C[C@@H]2C[C@H]1CN2CCOc1ccc(Oc2nc3cccc(Cl)c3s2)cc1 [Example 182, (S,S)-7-Chloro-2-{4-[2-(5-methanesulfonyl-2,5-diaza-bicyclo[2.2.1]hept-2-yl)-ethoxy]-phenoxy}-benzothiazole] here?
The Ki was 1.59 µM.

CC(=O)N1C[C@H]2C[C@@H]1CN2Cc1ccc(Oc2nc3cc(F)ccc3s2)cc1 [Example 183, (R,R)-1-{5-[4-(5-Fluoro-benzothiazol-2-yloxy)-benzyl]-2,5-diaza-bicyclo[2.2.1]hept-2-yl}-ethanone] was tested. Which Ki did it give?
Its Ki is 0.383 µM.

CC(=O)N1[C@@H]2CC[C@H]1C[C@H](NCc1ccc(Oc3nc4ccc(C)cc4s3)cc1)C2 [Example 184, meso-exo-1-{3-[4-(6-Methyl-benzothiazol-2-yloxy)-benzylamino]-8-aza-bicyclo[3.2.1]oct-8-yl}-ethanone] was tested. Which Ki did it give?
Its Ki is 0.406 µM.

With CS(=O)(=O)N1[C@@H]2CC[C@H]1C[C@H](NCc1ccc(Oc3nc4cc(Cl)ccc4s3)cc1)C2 [Example 185, meso-exo-[4-(5-Chloro-benzothiazol-2-yloxy)-benzyl]-(8-methanesulfonyl-8-aza-bicyclo[3.2.1]oct-3-yl)-amine] as the molecule, how does the Ki read?
Its Ki is 0.965 µM.

For NC(=O)N1C[C@H]2C[C@@H]1CN2Cc1ccc(Oc2nc3c(F)cccc3s2)cc1 [Example 186, (R,R)-5-[4-(4-Fluoro-benzothiazol-2-yloxy)-benzyl]-2,5-diaza-bicyclo[2.2.1]heptane-2-carboxylic acid amide], which Ki is on record?
The Ki was 0.01 µM.

With CC(=O)N[C@H]1C[C@H]2CC[C@@H](C1)N2CCc1ccc(Oc2nc3cccc(Cl)c3s2)cc1 [Example 187, meso-endo-N-(8-{2-[4-(7-Chloro-benzothiazol-2-yloxy)-phenyl]-ethyl}-8-aza-bicyclo[3.2.1]oct-3-yl)-acetamide] as the molecule, how does the Ki read?
Its Ki is 0.975 µM.

CS(=O)(=O)N[C@@H]1C[C@H]2CC[C@@H](C1)N2Cc1ccc(Oc2nc3c(F)cccc3s2)cc1 [Example 188, meso-exo-N-{8-[4-(4-Fluoro-benzothiazol-2-yloxy)-benzyl]-8-aza-bicyclo[3.2.1]oct-3-yl}-methanesulfonamide] was tested. Which Ki did it give?
Its Ki is 0.004 µM.

For CS(=O)(=O)N1C[C@H]2C[C@@H]1CN2Cc1ccc(Oc2nc3cccc(F)c3s2)cc1 [Example 189, (R,R)-7-Fluoro-2-[4-(5-methanesulfonyl-2,5-diaza-bicyclo[2.2.1]hept-2-ylmethyl)-phenoxy]-benzothiazole], which Ki is on record?
The Ki was 0.375 µM.

With NC(=O)N[C@H]1C[C@H]2CC[C@@H](C1)N2CCc1ccc(Oc2nc3cccc(F)c3s2)cc1 [Example 190, meso-endo-(8-{2-[4-(7-Fluoro-benzothiazol-2-yloxy)-phenyl]-ethyl}-8-aza-bicyclo[3.2.1]oct-3-yl)-urea] as the molecule, how does the Ki read?
Its Ki is 0.016 µM.

Which Ki does the source give for CS(=O)(=O)N1C[C@@H]2C[C@H]1CN2CCOc1ccc(Oc2nc3c(F)cccc3s2)cc1 [Example 191, (S,S)-4-Fluoro-2-{4-[2-(5-methanesulfonyl-2,5-diaza-bicyclo[2.2.1]hept-2-yl)-ethoxy]-phenoxy}-benzothiazole] here?
Its Ki is 0.032 µM.

For CS(=O)(=O)N1C[C@H]2C[C@@H]1CN2CCc1ccc(Oc2nc3cccc(Cl)c3s2)cc1 [Example 192, (R,R)-7-Chloro-2-{4-[2-(5-methanesulfonyl-2,5-diaza-bicyclo[2.2.1]hept-2-yl)-ethyl]-phenoxy}-benzothiazole], which Ki is on record?
Its Ki is over 10 µM.

With Cc1ccc2nc(Oc3ccc(CCN4C[C@H]5C[C@@H]4CN5S(C)(=O)=O)cc3)sc2c1 [Example 193, (R,R)-2-{4-[2-(5-Methanesulfonyl-2,5-diaza-bicyclo[2.2.1]hept-2-yl)-ethyl]-phenoxy}-6-methyl-benzothiazole] as the molecule, how does the Ki read?
Its Ki is 0.612 µM.

Which Ki does the source give for CS(=O)(=O)N1[C@@H]2CC[C@H]1C[C@@H](NCCOc1ccc(Oc3nc4c(Cl)cccc4s3)cc1)C2 [Example 194, meso-endo-{2-[4-(4-Chloro-benzothiazol-2-yloxy)-phenoxy]-ethyl}-(8-methanesulfonyl-8-aza-bicyclo[3.2.1]oct-3-yl)-amine] here?
The Ki was 3.14 µM.

With CC(=O)N[C@@H]1C[C@H]2CC[C@@H](C1)N2CCOc1ccc(Oc2nc3cccc(Cl)c3s2)cc1 [Example 195, meso-exo-N-(8-{2-[4-(7-Chloro-benzothiazol-2-yloxy)-phenoxy]-ethyl}-8-aza-bicyclo[3.2.1]oct-3-yl)-acetamide] as the molecule, how does the Ki read?
The Ki was 1.66 µM.
